This note sets out measurements from patent US11180504B2 (ORCHID PHARMA LTD., priority 2016, dated 2021).

Converted amounts (≈) assume the structure as drawn.

Test [1] has as its system methicillin-sensitive Staphylococcus aureus. Put plainly: MIC by broth micro-dilution (CLSI), methicillin-sensitive S. aureus. In kind it is cell-based. The following applies: Staphylococcus aureus, ATCC 29213 / MSSA, MSSA S. aureus ATCC29213; read-out: MIC.
The test system of test [2] is carbapenem sensitive Escherichia coli. Put plainly: MIC by broth micro-dilution (CLSI), carbapenem sensitive E. coli. The following applies: Escherichia coli, ATCC25922, ESBL −ve E. coli ATCC25922; read-out: MIC. It is filed as cell-based.
Test [3] relates to carbapenemase producing K. pneumoniae. Put plainly: MIC by broth micro-dilution (CLSI), carbapenemase producing K. pneumoniae. In kind it is cell-based, Klebsiella pneumoniae. The following applies: Klebsiella pneumoniae, ATCCBAA1705, KPC-2 K. pneumoniae ATCC BAA-1705; read-out: MIC. (Dilution methods test growth across graded concentrations, often in twofold steps.)
Test [4] concerns carbapenem sensitive Pseudomonas aeruginosa. Put plainly: MIC by broth micro-dilution (CLSI), carbapenem sensitive P. aeruginosa. The following applies: Pseudomonas aeruginosa, ATCC27853, Meropenem susceptible P. aeruginosa ATCC27853; read-out: MIC. In kind it is cell-based.

As usually defined, the MIC is the least concentration at which growth counts as inhibited. As to `C[C@@H](NC(=O)Cn1cnnn1)[C@H]1C(=O)N2C(C(=O)[O-])=C(SCc3ccc(-c4cn(CCCN)[n+](C)c4)cc3)[C@H](C)[C@H]12` [Example 596, (4R,5S,6R)-6-((R)-1-(2-(1H-tetrazol-1-yl)acetamido)ethyl)-3-(4-(1-(3-aminopropyl)-2-methyl-1H-pyrazol-2-ium-4-yl)benzylthio)-4-methyl-7-oxo-1-azabicyclo[3.2.0]hept-2-ene-2-carboxylate], the MIC in test [1] came out at 2 µg/mL (≈ 3.45 µM); in test [2], 1 µg/mL (≈ 1.73 µM); in test [3], 16 µg/mL (≈ 27.6 µM); in test [4] it was 32 µg/mL (≈ 55.2 µM).
Consider `C[C@@H](NC(=O)Cn1cnnn1)[C@H]1C(=O)N2C(C(=O)O)=C(S[C@@H]3CN[C@H](C(=O)N4CC5CC(CO)NC5C4)C3)[C@H](C)[C@H]12` (single isomer, unassigned) [Example 551], for which the MIC in test [1] turned out to be 4 µg/mL (≈ 6.78 µM); in test [2], 0.25 µg/mL (≈ 0.424 µM); in test [3] it was 2 µg/mL (≈ 3.39 µM); in test [4], 2 µg/mL (≈ 3.39 µM).
Take `C[C@@H](NC(=O)Cn1cnnn1)[C@H]1C(=O)N2C(C(=O)O)=C(S[C@@H]3CN[C@H](C(=O)N4CCC(N5CC(N)C5)CC4)C3)[C@H](C)[C@H]12` [Example 342, (4R,5S,6R)-6-((R) - 1-(2-(1H-tetrazol-1-yl)acetamido)ethyl)-3-((3S,5S)-5-(4-(3-aminoazetidin-1-yl)piperidine-1-carbonyl)pyrrolidin-3-ylthino)-4-methyl-7-oxo-1-azabicyclo[3.2.0]hept-2-ene-2-carboxylic acid]: the minimal inhibitory concentration (MIC) in test [1] was determined as 16 µg/mL (≈ 26.5 µM); in test [2] it was 2 µg/mL (≈ 3.32 µM); in test [3], 8 µg/mL (≈ 13.3 µM); in test [4] it was 8 µg/mL (≈ 13.3 µM).
In the case of `C[C@@H](NC(=O)CN1CCNCC1)[C@H]1C(=O)N2C(C(=O)O)=C(S[C@@H]3CN[C@H](C(=O)N(C)C)C3)[C@H](C)[C@H]12` [Example 508, (4R,5S,6R)-3-((3S,5S)-5-(dimethylcarbamoyl)pyrrolidin-3-ylthio)-4-methyl-7-oxo-6-((R)-1-(2-(piperazin-1-yl)acetamido)ethyl)-1-azabicyclo[3.2.0]hept-2-ene-2-carboxylic acid], the minimal inhibitory concentration (MIC) in test [1] turned out to be 16 µg/mL (≈ 31.5 µM); in test [2], 2 µg/mL (≈ 3.93 µM); in test [3] it was 8 µg/mL (≈ 15.7 µM); in test [4] it was 128 µg/mL (≈ 252 µM).
For `C[C@@H](NC(=O)Cn1cnnn1)[C@H]1C(=O)N2C(C(=O)O)=C(S[C@@H]3CN[C@H](C(=O)N4CC[C@H](N)C4)C3)[C@H](C)[C@H]12` [Example 324] the same measures were 4 µg/mL (≈ 7.5 µM), 0.5 µg/mL (≈ 0.937 µM), 4 µg/mL (≈ 7.5 µM) and 4 µg/mL (≈ 7.5 µM).
For `CNCC(=O)N[C@H](C)[C@H]1C(=O)N2C(C(=O)O)=C(S[C@@H]3CN[C@H](CNC(=O)[C@@H]4CCC(N)C4)C3)[C@H](C)[C@H]12` (stereo partly shown) [Example 262] the same measures were 32 µg/mL (≈ 61.2 µM), 4 µg/mL (≈ 7.65 µM), 16 µg/mL (≈ 30.6 µM) and 64 µg/mL (≈ 122 µM).
For `C[C@@H](NC(=O)Cn1nc(C(F)(F)F)nc1N)[C@H]1C(=O)N2C(C(=O)O)=C(S[C@@H]3CN[C@H](C(=O)N4CC[C@@H](N)C4)C3)[C@H](C)[C@H]12` [Example 317, (4R,5S,6R)-6-((R) - 1-(2-(5-amino-3-(trifluoromethyl) - 1H-1,2,4-triazol-1-yl)acetamido)ethyl)-3-((3S,5S)-5-((R)-3-aminopyrrolidine-1-carbonyl)pyrolidin-3-ylthio)-4-methyl-7-oxo-1-azabicyclo[3.2.0]hept-2-ene-2-carboxylic acid], in that order: 2 µg/mL (≈ 3.25 µM), 0.5 µg/mL (≈ 0.812 µM), 8 µg/mL (≈ 13 µM) and 128 µg/mL (≈ 208 µM).
